pIC50, pKd: −log10 of the molar value.
Assays:
β-catenin = target: T1, β-catenin (Homo sapiens, UniProt P35222); assay: SRP test (Biacore T200), binding to ligand β-catenin; conditions: Biacore T200, CM5 chip with β-catenin, HEPES pH 7.4, 0.1% DMSO, 25 °C
T1 sequence (P35222 1-781): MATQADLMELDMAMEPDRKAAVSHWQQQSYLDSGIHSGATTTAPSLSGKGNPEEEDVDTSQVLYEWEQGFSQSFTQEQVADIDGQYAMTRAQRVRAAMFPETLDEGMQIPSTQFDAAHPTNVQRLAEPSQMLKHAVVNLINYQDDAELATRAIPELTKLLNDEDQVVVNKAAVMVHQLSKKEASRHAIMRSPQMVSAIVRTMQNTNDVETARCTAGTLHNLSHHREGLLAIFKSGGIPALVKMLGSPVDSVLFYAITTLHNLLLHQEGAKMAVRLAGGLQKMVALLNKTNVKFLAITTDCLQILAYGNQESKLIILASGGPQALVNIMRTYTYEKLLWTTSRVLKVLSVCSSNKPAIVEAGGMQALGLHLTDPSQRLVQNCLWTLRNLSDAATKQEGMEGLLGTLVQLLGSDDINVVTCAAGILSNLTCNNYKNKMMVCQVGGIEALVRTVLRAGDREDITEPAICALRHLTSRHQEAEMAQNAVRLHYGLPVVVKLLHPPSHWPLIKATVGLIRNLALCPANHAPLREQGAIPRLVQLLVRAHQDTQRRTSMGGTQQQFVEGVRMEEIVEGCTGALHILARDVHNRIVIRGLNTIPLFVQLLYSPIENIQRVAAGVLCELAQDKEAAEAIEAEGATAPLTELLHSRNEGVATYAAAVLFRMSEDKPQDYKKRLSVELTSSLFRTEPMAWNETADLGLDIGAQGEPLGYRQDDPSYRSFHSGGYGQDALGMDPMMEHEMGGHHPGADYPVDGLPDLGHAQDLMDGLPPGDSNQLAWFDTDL
Procedure: • 1. Experimental settings • 1. The analyte is in powder form. • 2. The temperature is 25 °C • 3. The analysis equipment adopts Biacore T200 instrument. • 2. Sample dilution • 1. Ligand β-catenin diluted with HEPES (pH 7.4), 0.5 mg/mL • 2. The analyte was dissolved in DMSO and diluted with 0.1% DMSO HEPES (pH 7.4). • 3. Experimental process • 1. Operate and start according to the standard of Biacore T200 instrument. • 2. Prepare buffer HEPES (pH 7.4) and 500 ml of deionized water for washing syringes (filtered by […] membrane). • 3. Start installing the chip and install the Cm5 chip according to the standard process. • 4. Prepare to start the formal experiment, the buffer will flush the flow path system inside the entire system at a high flow rate. • 5. Choose the appropriate program according to the sample size. • 6. Start capturing the chip and prepare a sufficient volume of ligands β-catenin, EDC/NHS, and blocking solution. The conjugation procedure was started with a conjugation time of 7 min, a flow rate of […], and a final ligand conjugation of approximately 16000RU. • 7. After the conjugation is completed, the sample detection is started, and the analyte binding time is set to 120 s. • Flow rate of 30 μL/min; The dissociation time was 200 s and the flow rate was 30 μL/min. Regeneration time 30 s, • The flow rate is 30 μL/min. • 8. […]

SW480 cells = assay: CCK8 assay, SW480 cells; type: cell-based; conditions: CCK-8, SW480 cells, 24 hours incubation at 37 °C, DMEM (2% FBS), OD450-OD600
Procedure: • 1. SW480 Cell plate • Cells digested, counted, and laid a 96-well plate (flat-bottomed transparent) with 10,000 cells/100 ul DMEM (10% FBS) per well; • 2. Observe the cell status on the next day, and start adding medicine after the cells are intact; • 3. Dilute the compound with DMEM (2% FBS) and dilute it in a gradient at concentrations of 20 μM, 10 μM, 5 μM, 2.5 μM, 1.25 μM, 0.625 μM, 0.3125 μM, 0.15625 μM, 0 μM (equal volume DMSO); • 4. Add 100 μl of the above compounds of different concentrations to each well, and make 2 compound wells for each concentration gradient; Leave 3 blank wells (DMEM 2% FBS culture medium only, no cells); • 5. Incubate at 37 °C for 24 hours; • 6. […] Measure absorbance at 450 nm and absorbance at 600 nm (exclude interference from the reagent base color and the absorbance value of the plate itself); • 9. The final absorbance value is OD450 nm-OD600 nm, and the rejection rate is calculated.
Suppression Rate=[(Ac−As)/(Ac−Ab)]×100% • As: absorbance of the experimental wells (medium containing cells, CCK-8, drug to be tested); • Ac: absorbance of the control wells (medium containing cells, CCK-8, no drug to be tested); • Ab: Absorbance of blank wells (medium without cells and drug to be tested, CCK-8).

Row | SMILES | pKd (β-catenin) | further results
1 | CC(C)c1ccc(-c2cccc(S(=O)(=O)N3CCCC(c4cccc(OC(C)(C)C(=O)NCC(=O)N5CCC[C@H]5CN)c4)C3)c2)cc1 (stereo partly shown) [Compound 115-010] | 3.55 | 
2 | CC(C)c1ccc(-c2cccc(S(=O)(=O)N3CCCC(c4cccc(OC(C)(C)C(=O)NCC(=O)N5CC[C@@H](CN)C5)c4)C3)c2)cc1 (stereo partly shown) [Compound 115-012] | 3.12 | 
3 | CC(C)c1ccc(-c2cccc(S(=O)(=O)N3CCCC(c4cccc(OC(C)(C)C(=O)NCC(=O)N5CCC[C@H]5CCN)c4)C3)c2)cc1 (stereo partly drawn) [Compound 115-014, N-(2-((S)-2-(2-aminoethyl)pyrrolidin-1-yl)-2-oxyethyl)-2-(3-(1-((4′-isopropyl-[1,1′-Biphenyl]-3-yl)sulfonylpiperidine-3-yl)phenoxy)-2-methylpropionamide)] |  | pIC50 (SW480 cells; Homo sapiens, read-out: SW^10 IC50): 4.28
4 | CC(C)(Oc1cccc(C2CCCN(C(=O)NCc3ccc(-c4cn[nH]c4)cc3)C2)c1)C(=O)NCC(=O)N1CCCC1CN (stereo not shown) [Compound 115-020] |  | SW^10 IC50 (SW480 cells): Inactive

— patent US20260327202A1, “COMPOUND CONTAINING 2-METHYL-2-(3-(PIPERIDIN-3-YL)PHENOXY)-2-METHYLPROPANAMIDE SKELETON” (JIANGSU MINGSHENG JUTAI BIOTECHNOLOGY CO. LTD, priority 2023, published 2026)
